The values that follow come from patent publication US20210101899A1, “INHIBITORS OF MUTANT ISOCITRATE DEHYDROGENASES AND COMPOSITIONS AND METHODS THEREOF” (IsoCure Biosciences Inc., priority 2016, published 2021).

The term IC50 denotes the concentration that inhibits the measured activity by half.

Bounds are passed on as bounds.

Holding throughout (format): biochemical
The target of assay [1] is IDH1 (Homo sapiens, UniProt O75874). Nature of the assay: IDH enzyme assay, NADPH production by diaphorase/resazurin coupled detection. Conditions: IDH1 WT; pre-incubated with enzyme for 1 h at room temperature; 65 μM Isocitrate+50 μM NADP; 10-dose, 3-fold dilution from 10 μM; read-out: Compound IC50 (nM) IDH1. The procedure: (§1) Compounds were tested against 3 enzymes, as provided below. Compounds were tested in 10-dose IC50 mode with 3-fold serial dilution at a starting concentration of 10 μM. Control Compounds were tested in 10-dose IC50 mode with 3-fold serial dilution starting at 1 mM or 10 mM. Assay Format: The production or depletion of NADPH by IDH enzymes was measured by diaphorase/resazurin coupled detection. Fluorescence measurement: Ex/Em=535/590 by EnVision. Compounds were pre-incubated with enzyme for 1 h at room temperature. Standard substrate: 1500 μM a-Ketoglutarate+15 μM NADPH for IDH1 (R132H). 500 μM a-Ketoglutarate+15 μM NADPH for IDH1 (R132C). 65 μM Isocitrate+50 μM NADP for IDH1.
Sequence of IDH1 (O75874 whole entry): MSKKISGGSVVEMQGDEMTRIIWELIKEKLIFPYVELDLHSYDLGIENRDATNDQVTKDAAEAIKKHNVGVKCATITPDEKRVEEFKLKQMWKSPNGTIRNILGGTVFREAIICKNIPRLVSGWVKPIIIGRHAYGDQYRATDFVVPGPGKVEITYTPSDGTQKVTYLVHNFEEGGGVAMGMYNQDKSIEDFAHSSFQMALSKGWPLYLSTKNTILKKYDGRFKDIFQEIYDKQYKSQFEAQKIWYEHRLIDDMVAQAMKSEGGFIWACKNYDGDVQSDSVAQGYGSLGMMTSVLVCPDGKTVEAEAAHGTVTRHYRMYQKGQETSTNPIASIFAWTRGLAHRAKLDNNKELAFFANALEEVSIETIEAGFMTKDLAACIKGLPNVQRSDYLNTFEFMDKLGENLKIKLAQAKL

In assay [2] the target is IDH1 (R132C) (Homo sapiens, UniProt O75874, R132C). Nature of the assay: IDH enzyme assay, NADPH depletion by diaphorase/resazurin coupled detection. Conditions: pre-incubated with enzyme for 1 h at room temperature; 500 μM a-Ketoglutarate+15 μM NADPH; 10-dose, 3-fold dilution from 10 μM; read-out: Compound IC50 (nM) IDH1 (R132C). The procedure: as §1
Sequence of IDH1 (R132C) (O75874 whole entry R132C): as the sequence (O75874 whole entry) above, with R132C counted along it
For orientation: Resazurin is reduced to fluorescent resorufin, in cell work by metabolically active cells.

Assay [3] deals with IDH1 (R132H) (Homo sapiens, UniProt O75874, R132H). The description is as above. Conditions: pre-incubated with enzyme for 1 h at room temperature; 1500 μM a-Ketoglutarate+15 μM NADPH; 10-dose, 3-fold dilution from 10 μM; read-out: Compound IC50 (nM) IDH1 (R132H). The procedure:
as §1

Sequence of IDH1 (R132H) (O75874 whole entry R132H): as the sequence (O75874 whole entry) above, with R132H counted along it

Consider `C=CC(=O)Nc1cc(F)ccc1Cn1nc(C(=O)Nc2cccc([C@H](C)O)c2)c2c1C(C)CN(C(=O)c1ccc[nH]1)C2` (stereo partly drawn) [ISO-2-7, 1-(2-acrylamido-4-fluorobenzyl)-N-(3-((S)-1-hydroxyethyl)phenyl)-7-methyl-5-(1H-pyrrole-2-carbonyl)-4,5,6,7-tetrahydro-1H-pyrazolo[4,3-c]pyridine-3-carboxamide], for which the IC50 in assay [1] was > 10000 nM; in assay [2], 247 nM; in assay [3] it was 153 nM.
Regarding `C=CC(=O)Nc1ccc(Cn2nc(C(=O)Nc3cccc(C)c3)c3c2C(C)CN(C(=O)c2ccc[nH]2)C3)cc1C` (stereo not drawn) [ISO-2-28, 1-(4-acrylamido-3-methylbenzyl)-7-methyl-5-(1H-pyrrole-2-carbonyl)-N-(m-tolyl)-4,5,6,7-tetrahydro-1H-pyrazolo[4,3-c]pyridine-3-carboxamide], the half-maximal inhibitory concentration (IC50) in assay [1] is > 10000 nM; in assay [2], 5550 nM; in assay [3] it was 149 nM.
Take `C=CC(=O)NCc1cc(F)ccc1Cn1nc(C(=O)Nc2cccc([C@H](C)O)c2)c2c1C(C)CN(C(=O)c1ccc[nH]1)C2` (stereo partly drawn) [ISO-2-8, 1-(2-(acrylamidomethyl)-4-fluorobenzyl)-N-(3-((S)-1-hydroxyethyl)phenyl)-7-methyl-5-(1H-pyrrole-2-carbonyl)-4,5,6,7-tetrahydro-1H-pyrazolo[4,3-c]pyridine-3-carboxamide]: the IC50 in assay [1] is > 10000 nM; in assay [2] it was 154 nM; in assay [3], 52 nM.
For `C=CC(=O)NC1CC(NC(=O)c2nn(Cc3ccc(F)cc3)c3c2CN(C(=O)c2ccc[nH]2)CC3C)C1` (stereo not drawn) [ISO-2-20, N-(3-acrylamidocyclobutyl)-1-(4-fluorobenzyl)-7-methyl-5-(1H-pyrrole-2-carbonyl)-4,5,6,7-tetrahydro-1H-pyrazolo[4,3-c]pyridine-3-carboxamide], in that order: > 10000 nM, 7370 nM and 5480 nM.
For `C=CC(=O)Nc1cc(Cn2nc(C(=O)Nc3cccc([C@H](C)O)c3)c3c2C(C)CN(C(=O)c2ccc[nH]2)C3)ccc1F` (stereo partly drawn) [ISO-2-3, 1-(3-acrylamido-4-fluorobenzyl)-N-(3-((S)-1-hydroxyethyl)phenyl)-7-methyl-5-(1H-pyrrole-2-carbonyl)-4,5,6,7-tetrahydro-1H-pyrazolo[4,3-c]pyridine-3-carboxamide], the IC50 is ≥ 10000 nM in assay [1], 77 nM in assay [2] and 34 nM in assay [3].
`C=CC(=O)Nc1cccc(Cn2nc(C(=O)Nc3cccc(C)c3)c3c2C(C)CN(C(=O)c2ccc[nH]2)C3)c1` (stereo not drawn) [ISO-2-27, 1-(3-acrylamidobenzyl)-7-methyl-5-(1H-pyrrole-2-carbonyl)-N-(m-tolyl)-4,5,6,7-tetrahydro-1H-pyrazolo[4,3-c]pyridine-3-carboxamide]: the values for the IC50 in assay [1], in assay [2] and in assay [3] were > 10000 nM, 127 nM and 25 nM, respectively.
As to `C=CC(=O)Nc1cc(Cn2nc(C(=O)Nc3cccc(C)c3)c3c2C(C)CN(C(=O)c2ccc[nH]2)C3)ccc1F` (stereo not drawn) [ISO-2-1, 1-(3-acrylamido-4-fluorobenzyl)-7-methyl-5-(1H-pyrrole-2-carbonyl)-N-(m-tolyl)-4,5,6,7-tetrahydro-1H-pyrazolo[4,3-c]pyridine-3-carboxamide], the figures for the IC50 in assay [1], in assay [2] and in assay [3] were > 10000 nM, 35 nM and 18 nM, respectively.
Turning to `C=CC(=O)Nc1ccc(NC(=O)c2nn(Cc3ccc(F)cc3)c3c2CN(C(=O)c2ccc[nH]2)CC3C)cc1` (stereo not drawn) [ISO-2-25, N-(4-acrylamidophenyl)-1-(4-fluorobenzyl)-7-methyl-5-(1H-pyrrole-2-carbonyl)-4,5,6,7-tetrahydro-1H-pyrazolo[4,3-c]pyridine-3-carboxamide], the half-inhibitory concentration (IC50) in assay [1] is 5740 nM; in assay [2], 0.8 nM; in assay [3], 0.6 nM.
